ChEMBL document CHEMBL1770095, “Discovery of histone deacetylase 8 selective inhibitors” (Bioorg Med Chem Lett, 2011)
pIC50: −log10 of the molar value.

What was measured:
Histone deacetylase 8 = molecular target: T1, Histone deacetylase 8 (Homo sapiens, UniProt Q9BY41); assay: Inhibition of full length HDAC8 assessed as 7-amino-4-methylcoumarin release from fluorophore conjugated substrate after 5 mins by fluorescence assay
T1 sequence (Q9BY41 whole entry): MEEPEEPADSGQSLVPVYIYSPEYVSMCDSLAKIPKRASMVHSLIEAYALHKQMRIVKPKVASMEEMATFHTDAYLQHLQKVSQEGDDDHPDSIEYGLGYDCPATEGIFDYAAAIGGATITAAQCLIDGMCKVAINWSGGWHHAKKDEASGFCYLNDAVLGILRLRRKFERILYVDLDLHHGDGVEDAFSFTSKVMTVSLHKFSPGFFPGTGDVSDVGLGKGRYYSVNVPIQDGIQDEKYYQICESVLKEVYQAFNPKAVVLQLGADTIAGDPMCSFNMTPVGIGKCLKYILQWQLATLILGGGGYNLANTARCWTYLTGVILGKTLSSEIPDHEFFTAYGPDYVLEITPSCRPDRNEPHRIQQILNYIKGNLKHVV

Histone deacetylase 2 = Histone deacetylase 2 (Homo sapiens, UniProt Q92769); assay: Inhibition of full length HDAC2 assessed as 7-amino-4-methylcoumarin release from fluorophore conjugated substrate after 5 mins by fluorescence assay
Sequence of Histone deacetylase 2 (Q92769 whole entry): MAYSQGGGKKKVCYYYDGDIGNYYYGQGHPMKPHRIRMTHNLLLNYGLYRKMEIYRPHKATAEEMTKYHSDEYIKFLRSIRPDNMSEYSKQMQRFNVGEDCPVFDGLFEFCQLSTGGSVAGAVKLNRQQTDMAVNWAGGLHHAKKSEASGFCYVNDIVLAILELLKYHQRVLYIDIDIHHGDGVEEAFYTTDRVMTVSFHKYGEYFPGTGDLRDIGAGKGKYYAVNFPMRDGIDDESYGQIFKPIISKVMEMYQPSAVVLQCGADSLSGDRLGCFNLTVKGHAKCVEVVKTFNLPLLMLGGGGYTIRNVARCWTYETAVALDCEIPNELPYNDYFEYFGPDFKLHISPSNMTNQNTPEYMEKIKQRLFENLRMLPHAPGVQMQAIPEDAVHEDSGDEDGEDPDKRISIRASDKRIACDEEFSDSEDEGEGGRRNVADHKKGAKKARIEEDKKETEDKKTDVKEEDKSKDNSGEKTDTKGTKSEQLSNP

[1] = molecular target: Histone deacetylase 3/Nuclear receptor corepressor 2 (HDAC3/NCoR2) (Homo sapiens, UniProt O15379); assay: Inhibition of full length HDAC3/NCoR2 assessed as 7-amino-4-methylcoumarin release from fluorophore conjugated substrate after 5 mins by fluorescence assay; assay type: protein-complex assay
Sequence of Histone deacetylase 3/Nuclear receptor corepressor 2 (HDAC3/NCoR2) (O15379 whole entry): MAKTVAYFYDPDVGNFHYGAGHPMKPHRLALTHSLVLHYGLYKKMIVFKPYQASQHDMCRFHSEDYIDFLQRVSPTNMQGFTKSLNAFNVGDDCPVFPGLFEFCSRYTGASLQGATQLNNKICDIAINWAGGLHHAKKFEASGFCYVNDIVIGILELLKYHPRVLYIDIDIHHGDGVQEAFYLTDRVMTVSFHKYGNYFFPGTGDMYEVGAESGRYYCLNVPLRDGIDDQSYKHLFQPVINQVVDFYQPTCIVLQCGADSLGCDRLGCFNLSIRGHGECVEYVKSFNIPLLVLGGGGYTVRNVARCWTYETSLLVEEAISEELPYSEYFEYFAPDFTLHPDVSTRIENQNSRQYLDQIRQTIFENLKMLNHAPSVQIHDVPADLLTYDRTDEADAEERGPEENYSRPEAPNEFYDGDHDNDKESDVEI
Sequence of Histone deacetylase 3/Nuclear receptor corepressor 2 (HDAC3/NCoR2) (Q9Y618 whole entry, further chain): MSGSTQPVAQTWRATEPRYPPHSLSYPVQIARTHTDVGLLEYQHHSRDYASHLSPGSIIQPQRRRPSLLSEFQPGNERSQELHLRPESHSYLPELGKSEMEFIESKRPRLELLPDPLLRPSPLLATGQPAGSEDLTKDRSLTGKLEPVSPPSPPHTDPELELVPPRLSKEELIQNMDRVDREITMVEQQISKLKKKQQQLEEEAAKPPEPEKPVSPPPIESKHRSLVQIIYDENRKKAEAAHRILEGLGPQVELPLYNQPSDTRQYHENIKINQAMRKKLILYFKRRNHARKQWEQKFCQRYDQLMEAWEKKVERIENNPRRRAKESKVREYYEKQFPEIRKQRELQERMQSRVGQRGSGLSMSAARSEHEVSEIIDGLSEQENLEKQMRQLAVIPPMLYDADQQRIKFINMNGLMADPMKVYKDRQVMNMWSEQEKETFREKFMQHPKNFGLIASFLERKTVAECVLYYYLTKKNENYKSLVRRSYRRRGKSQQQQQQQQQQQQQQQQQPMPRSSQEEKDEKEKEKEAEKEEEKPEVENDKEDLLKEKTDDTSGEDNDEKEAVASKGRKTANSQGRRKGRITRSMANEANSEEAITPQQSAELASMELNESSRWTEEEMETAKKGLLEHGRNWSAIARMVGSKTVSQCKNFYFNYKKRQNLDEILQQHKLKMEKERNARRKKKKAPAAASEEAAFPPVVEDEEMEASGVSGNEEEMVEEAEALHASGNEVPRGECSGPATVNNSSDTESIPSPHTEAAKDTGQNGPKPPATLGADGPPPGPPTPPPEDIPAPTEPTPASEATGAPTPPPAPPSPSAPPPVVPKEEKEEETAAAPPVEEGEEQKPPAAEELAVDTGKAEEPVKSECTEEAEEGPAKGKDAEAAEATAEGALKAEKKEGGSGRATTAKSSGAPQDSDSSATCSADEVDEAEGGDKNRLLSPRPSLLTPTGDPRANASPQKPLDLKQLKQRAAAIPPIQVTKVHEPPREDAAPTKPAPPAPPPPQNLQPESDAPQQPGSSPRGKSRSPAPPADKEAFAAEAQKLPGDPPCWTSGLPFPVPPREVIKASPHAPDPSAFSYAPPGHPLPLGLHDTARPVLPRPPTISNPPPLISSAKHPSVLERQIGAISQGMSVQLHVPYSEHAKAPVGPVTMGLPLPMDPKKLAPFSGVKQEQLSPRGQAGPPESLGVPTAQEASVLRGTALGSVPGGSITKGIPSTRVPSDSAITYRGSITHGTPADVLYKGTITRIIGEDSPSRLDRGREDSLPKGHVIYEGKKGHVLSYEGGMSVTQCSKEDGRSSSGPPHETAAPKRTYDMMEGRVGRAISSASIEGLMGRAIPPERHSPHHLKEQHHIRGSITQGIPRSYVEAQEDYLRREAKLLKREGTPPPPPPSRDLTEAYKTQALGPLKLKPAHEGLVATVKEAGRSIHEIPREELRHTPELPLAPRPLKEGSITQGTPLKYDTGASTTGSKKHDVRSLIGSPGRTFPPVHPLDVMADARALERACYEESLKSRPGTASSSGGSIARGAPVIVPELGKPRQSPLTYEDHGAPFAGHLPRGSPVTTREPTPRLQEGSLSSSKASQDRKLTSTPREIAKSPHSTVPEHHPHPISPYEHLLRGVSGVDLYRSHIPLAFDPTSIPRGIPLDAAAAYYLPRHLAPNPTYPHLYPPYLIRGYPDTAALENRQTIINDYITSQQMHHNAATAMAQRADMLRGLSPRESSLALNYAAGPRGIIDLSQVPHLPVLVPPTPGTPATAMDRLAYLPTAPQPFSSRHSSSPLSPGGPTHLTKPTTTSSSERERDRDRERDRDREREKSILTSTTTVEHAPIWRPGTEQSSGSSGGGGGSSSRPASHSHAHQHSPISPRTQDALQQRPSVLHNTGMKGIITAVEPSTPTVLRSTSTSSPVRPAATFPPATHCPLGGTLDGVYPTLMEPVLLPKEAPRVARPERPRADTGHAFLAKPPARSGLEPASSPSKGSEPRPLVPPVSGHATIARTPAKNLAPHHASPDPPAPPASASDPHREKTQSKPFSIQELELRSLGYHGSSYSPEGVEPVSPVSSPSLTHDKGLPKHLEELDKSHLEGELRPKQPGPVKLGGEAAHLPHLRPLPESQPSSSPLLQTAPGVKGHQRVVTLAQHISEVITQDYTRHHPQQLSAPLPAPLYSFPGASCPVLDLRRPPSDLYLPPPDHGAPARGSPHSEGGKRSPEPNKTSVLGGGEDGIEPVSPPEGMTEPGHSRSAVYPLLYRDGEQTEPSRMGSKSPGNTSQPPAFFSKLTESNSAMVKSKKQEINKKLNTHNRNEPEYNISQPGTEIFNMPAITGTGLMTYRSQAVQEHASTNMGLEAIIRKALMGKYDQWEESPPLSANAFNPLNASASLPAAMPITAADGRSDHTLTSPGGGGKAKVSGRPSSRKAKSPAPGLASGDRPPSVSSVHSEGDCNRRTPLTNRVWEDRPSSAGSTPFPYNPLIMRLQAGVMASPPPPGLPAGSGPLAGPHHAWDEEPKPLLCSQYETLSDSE

| pIC50 (Histone deacetylase 8) | pIC50 (Histone deacetylase 2) | pIC50 [1] | Compound |
| --- | --- | --- | --- |
| 7.54 | 5.20 | 5.21 | C#CCOc1ccc(/C=N/NC(=O)c2cccc(C(=O)NO)c2)cc1 |
| 6.96 | 5.30 | 4.82 | O=C1CC/C=C/CCC(=O)N(Cc2cccc(/C=N/NC(=O)c3cccc(C(=O)NO)c3)c2)C[C@H](c2ccccc2)O1 |
| 7.64 | 5.44 | 4.82 | O=C1CC/C=C/CCC(=O)N(Cc2cccc(/C=N/NC(=O)c3cccc(C(=O)NO)c3)c2)C[C@@H](c2ccccc2)O1 |
| 6.54 | 8.68 | 8.51 | C#CCOc1ccc(/C=N/NC(=O)CCCCCCC(=O)NO)cc1 |
| 7.28 | 4.70 | 4.74 | O=C(NO)c1cccc(C(=O)N/N=C/c2ccccc2)c1 |
